Results reported in ChEMBL document CHEMBL1131746, “Synthesis of taxoids 5. Synthesis and evaluation of novel water-soluble prodrugs of a 3'-desphenyl-3'-cyclopropyl analogue of docetaxel” (Bioorg Med Chem Lett, 1999).
Values after ≈ are worked out from the molar mass of the structure shown.

Tests used:
Mus musculus [1] = assay: Compound was evaluated for antitumor activity by iv administration against B16 melanoma implanted sc in mice at dose 12.5 mg/kg/day; format: functional
Mus musculus [2] = assay: Antitumor activity was measured as change in body weight on day 10 in mice implanted with B16 melanoma cells at dose of 12.5 mg/kg/day; format: functional
[3] = Solubility in saline; format: physicochemical; conditions: read-out: S
Mus musculus [4] = assay: Compound was evaluated for antitumor activity by iv administration against B16 melanoma implanted sc in mice at a dose of 6.3 mg/kg/day; format: functional
SK-BR-3 = assay: Inhibitory concentration required against SK-BR-3 human breast cancer cell line was determined; format: functional, cell-based
[5] = Ratio of IC50 of docetaxel / IC50 against MKN1 cell line was determined; format: functional, MKN-1
[6] = Ratio of IC50 of docetaxel / IC50 against Colon 320 cell line was determined; format: functional, COLO 320
[7] = Inhibitory concentration required against MKN1 human stomach cancer cell line was determined; format: functional, cell-based; conditions: cancer cell lines
WiDr = assay: Inhibitory concentration required against WiDr human colon cancer cell line was determined; format: functional, cell-based
Mus musculus [8] = assay: Antitumor activity was measured as change in body weight on day 10 in mice implanted with B16 melanoma cells at a dose of 6.3 mg/kg/day; format: functional
SK-LU-1 = assay: Inhibitory concentration required against SK-LU-1 human lung cancer cell line was determined; format: functional, cell-based
[9] = Ratio of IC50 of docetaxel / IC50 against SK-BR-3 cell line was determined; format: functional
[10] = Ratio of IC50 of docetaxel / IC50 against SK-LU-1 cell line was determined; format: functional
[11] = Ratio of IC50 of docetaxel / IC50 against WiDr cell line was determined; format: functional
OVCAR-3 = assay: Inhibitory concentration required against OVCAR-3 human ovarian cancer cell line was determined; format: functional, cell-based
[12] = Inhibitory concentration required against Colon320 human colon cancer cell line was determined; format: functional, cell-based; conditions: cancer cell lines
[13] = Ratio of IC50 of docetaxel / IC50 against OVCAR-3 cell line was determined; format: functional
Mus musculus [14] = assay: Antitumor activity was measured as change in body weight on day 10 in mice implanted with B16 melanoma cells at dose of 20 mg/kg/day; format: functional
Mus musculus [15] = assay: Compound was evaluated for antitumor activity by iv administration against B16 melanoma implanted sc in mice at dose 20 mg/kg/day; format: functional

Structure (SMILES): CC(=O)O[C@@]12CO[C@@H]1C[C@H](O)[C@@]1(C)C(=O)[C@H](O)C3=C(C)[C@@H](OC(=O)[C@H](OC(=O)OCOC(=O)C[C@H](N)C(N)=O)[C@@H](NC(=O)OC(C)(C)C)C4CC4)C[C@@](O)([C@@H](OC(=O)c4ccccc4)[C@H]21)C3(C)C
- ILS at 12.5 mg/kg/day (Mus musculus [1]): 227%
- Body weight change (Mus musculus [2]): -3.2%
- solubility [3]: 5 mg/mL (≈ 5.21 mM)

Structure (SMILES): CC(=O)O[C@@]12CO[C@@H]1C[C@H](O)[C@@]1(C)C(=O)[C@H](O)C3=C(C)[C@@H](OC(=O)[C@H](OC(=O)OCOC(=O)C[C@@H](N)C(N)=O)[C@@H](NC(=O)OC(C)(C)C)C4CC4)C[C@@](O)([C@@H](OC(=O)c4ccccc4)[C@H]21)C3(C)C
- ILS at 12.5 mg/kg/day (Mus musculus [1]): 127%
- Body weight change (Mus musculus [2]): -11.1%
- solubility [3]: 50 mg/mL (≈ 52.1 mM)

Structure (SMILES): CC(=O)O[C@@]12CO[C@@H]1C[C@H](O)[C@@]1(C)C(=O)[C@H](O)C3=C(C)[C@@H](OC(=O)[C@H](OC(=O)OCOC(=O)C[C@H](N)C(=O)O)[C@@H](NC(=O)OC(C)(C)C)C4CC4)C[C@@](O)([C@@H](OC(=O)c4ccccc4)[C@H]21)C3(C)C
- ILS at 12.5 mg/kg/day (Mus musculus [1]): 212%
- Body weight change (Mus musculus [2]): 3.3%
- solubility [3]: 1 mg/mL (≈ 1.04 mM)

Structure (SMILES): CNC(=O)[C@@H](N)CC(=O)OCOC(=O)O[C@@H](C(=O)O[C@H]1C[C@@]2(O)[C@@H](OC(=O)c3ccccc3)[C@@H]3[C@]4(OC(C)=O)CO[C@@H]4C[C@H](O)[C@@]3(C)C(=O)[C@H](O)C(=C1C)C2(C)C)[C@@H](NC(=O)OC(C)(C)C)C1CC1
- ILS at 12.5 mg/kg/day (Mus musculus [1]): 185%
- Body weight change (Mus musculus [2]): -0.5%
- solubility [3]: 10 mg/mL (≈ 10.3 mM)

Structure (SMILES): CCOC(=O)[C@@H](N)CC(=O)OCOC(=O)O[C@@H](C(=O)O[C@H]1C[C@@]2(O)[C@@H](OC(=O)c3ccccc3)[C@@H]3[C@]4(OC(C)=O)CO[C@@H]4C[C@H](O)[C@@]3(C)C(=O)[C@H](O)C(=C1C)C2(C)C)[C@@H](NC(=O)OC(C)(C)C)C1CC1
- ILS at 12.5 mg/kg/day (Mus musculus [1]): 213%
- Body weight change (Mus musculus [2]): -2.9%
- solubility [3]: 10 mg/mL (≈ 10.1 mM)

Structure (SMILES): CC(=O)O[C@@]12CO[C@@H]1C[C@H](O)[C@@]1(C)C(=O)[C@H](O)C3=C(C)[C@@H](OC(=O)[C@H](O)[C@@H](NC(=O)OC(C)(C)C)C4CC4)C[C@@](O)([C@@H](OC(=O)c4ccccc4)[C@H]21)C3(C)C
- ILS at 6.3 mg/kg/day (Mus musculus [4]): 187%
- IC50 (SK-BR-3): 1.1 nM
- Ratio [5]: 1.4
- Ratio [6]: 23
- IC50 [7]: 1.2 nM
- IC50 (WiDr): 0.027 nM
- Body weight change (Mus musculus [8]): -7.5%
- IC50 (SK-LU-1): 1 nM
- Ratio [9]: 4.3
- Ratio [10]: 1.8
- Ratio [11]: 16
- IC50 (OVCAR-3): 0.52 nM
- IC50 [12]: 0.21 nM
- Ratio [13]: 2.3

Structure (SMILES): CC(=O)O[C@@]12CO[C@@H]1C[C@H](O)[C@@]1(C)C(=O)[C@H](O)C3=C(C)[C@@H](OC(=O)[C@H](O)[C@@H](NC(=O)OC(C)(C)C)c4ccccc4)C[C@@](O)([C@@H](OC(=O)c4ccccc4)[C@H]21)C3(C)C.O.O.O [DOCETAXEL]
- IC50 (SK-BR-3): 4.7 nM
- Body weight change (Mus musculus [14]): -13%
- IC50 [7]: 1.7 nM
- IC50 (WiDr): 0.43 nM
- ILS at 20 mg/kg/day (Mus musculus [15]): 149%
- IC50 (SK-LU-1): 1.8 nM
- IC50 (OVCAR-3): 1.2 nM
- IC50 [12]: 4.8 nM
